The species entered for one test is Homo sapiens. The test is described as follows: Selectivity ratio of IC50 for JAK1 (unknown origin) to IC50 for JAK2 (unknown origin).
In test [1] the target is T1, Tyrosine-protein kinase JAK1 (Homo sapiens, UniProt P23458). The test is described as follows: Inhibition of JAK1 (unknown origin) after 1 hr by FRET-based Z'-Lyte assay.
The target in test [2] is T2, Tyrosine-protein kinase JAK2 (Homo sapiens, UniProt O60674). The test is described as follows: Inhibition of JAK2 (unknown origin) after 1 hr FRET-based Z'-Lyte assay.
In test [3] the target is T1, Tyrosine-protein kinase JAK1. The test is described as follows: Inhibition of JAK1 (unknown origin) at 10 uM after 1 hr by FRET-based Z'-Lyte assay.
The target is the same in test [4]. The test is described as follows: Inhibition of JAK1 (unknown origin) at 20 uM after 1 hr by FRET-based Z'-Lyte assay.
The target is the same in test [5].
Description: Inhibition of human recombinant JAK1 (852 to 1142 residues) by Z-Lyte assay
For test [6], the target named is T2, Tyrosine-protein kinase JAK2.
Description: Inhibition of human recombinant JAK2 (808 to 1132 residues) by Z-Lyte assay

As usually defined, the IC50 is the midpoint of a concentration-inhibition curve. The low end stands for higher potency, the high end for lower potency. By inhibition is commonly meant how much of the control response was suppressed. A high value points to a response far below the control.

T2 sequence (O60674 whole entry): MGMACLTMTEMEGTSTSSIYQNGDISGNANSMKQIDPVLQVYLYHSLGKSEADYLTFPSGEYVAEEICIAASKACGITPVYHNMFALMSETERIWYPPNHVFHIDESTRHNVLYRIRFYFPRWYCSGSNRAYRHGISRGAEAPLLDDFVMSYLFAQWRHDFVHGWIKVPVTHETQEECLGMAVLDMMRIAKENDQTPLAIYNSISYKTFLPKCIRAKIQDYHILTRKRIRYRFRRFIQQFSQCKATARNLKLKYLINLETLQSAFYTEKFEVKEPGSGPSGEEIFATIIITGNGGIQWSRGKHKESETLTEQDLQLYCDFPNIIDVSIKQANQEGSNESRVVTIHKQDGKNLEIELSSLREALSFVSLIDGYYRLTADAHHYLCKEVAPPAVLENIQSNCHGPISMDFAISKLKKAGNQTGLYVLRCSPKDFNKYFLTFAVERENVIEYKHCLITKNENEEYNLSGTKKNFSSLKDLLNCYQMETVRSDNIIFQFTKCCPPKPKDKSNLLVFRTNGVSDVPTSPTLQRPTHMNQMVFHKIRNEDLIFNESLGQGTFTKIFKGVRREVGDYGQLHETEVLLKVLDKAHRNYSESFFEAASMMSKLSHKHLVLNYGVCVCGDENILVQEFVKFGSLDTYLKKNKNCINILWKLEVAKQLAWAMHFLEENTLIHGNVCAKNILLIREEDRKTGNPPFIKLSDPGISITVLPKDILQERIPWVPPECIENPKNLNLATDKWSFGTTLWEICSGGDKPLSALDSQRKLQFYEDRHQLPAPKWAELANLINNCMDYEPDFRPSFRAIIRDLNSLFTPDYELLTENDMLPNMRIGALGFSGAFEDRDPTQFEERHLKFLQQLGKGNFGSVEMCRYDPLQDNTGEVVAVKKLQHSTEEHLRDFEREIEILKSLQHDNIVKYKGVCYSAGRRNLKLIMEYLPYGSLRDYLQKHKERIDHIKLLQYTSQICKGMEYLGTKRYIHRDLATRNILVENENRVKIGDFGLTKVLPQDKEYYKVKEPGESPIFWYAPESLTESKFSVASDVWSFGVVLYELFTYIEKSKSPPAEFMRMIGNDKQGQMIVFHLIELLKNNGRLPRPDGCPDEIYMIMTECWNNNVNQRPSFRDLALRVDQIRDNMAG
T1 sequence (P23458 whole entry): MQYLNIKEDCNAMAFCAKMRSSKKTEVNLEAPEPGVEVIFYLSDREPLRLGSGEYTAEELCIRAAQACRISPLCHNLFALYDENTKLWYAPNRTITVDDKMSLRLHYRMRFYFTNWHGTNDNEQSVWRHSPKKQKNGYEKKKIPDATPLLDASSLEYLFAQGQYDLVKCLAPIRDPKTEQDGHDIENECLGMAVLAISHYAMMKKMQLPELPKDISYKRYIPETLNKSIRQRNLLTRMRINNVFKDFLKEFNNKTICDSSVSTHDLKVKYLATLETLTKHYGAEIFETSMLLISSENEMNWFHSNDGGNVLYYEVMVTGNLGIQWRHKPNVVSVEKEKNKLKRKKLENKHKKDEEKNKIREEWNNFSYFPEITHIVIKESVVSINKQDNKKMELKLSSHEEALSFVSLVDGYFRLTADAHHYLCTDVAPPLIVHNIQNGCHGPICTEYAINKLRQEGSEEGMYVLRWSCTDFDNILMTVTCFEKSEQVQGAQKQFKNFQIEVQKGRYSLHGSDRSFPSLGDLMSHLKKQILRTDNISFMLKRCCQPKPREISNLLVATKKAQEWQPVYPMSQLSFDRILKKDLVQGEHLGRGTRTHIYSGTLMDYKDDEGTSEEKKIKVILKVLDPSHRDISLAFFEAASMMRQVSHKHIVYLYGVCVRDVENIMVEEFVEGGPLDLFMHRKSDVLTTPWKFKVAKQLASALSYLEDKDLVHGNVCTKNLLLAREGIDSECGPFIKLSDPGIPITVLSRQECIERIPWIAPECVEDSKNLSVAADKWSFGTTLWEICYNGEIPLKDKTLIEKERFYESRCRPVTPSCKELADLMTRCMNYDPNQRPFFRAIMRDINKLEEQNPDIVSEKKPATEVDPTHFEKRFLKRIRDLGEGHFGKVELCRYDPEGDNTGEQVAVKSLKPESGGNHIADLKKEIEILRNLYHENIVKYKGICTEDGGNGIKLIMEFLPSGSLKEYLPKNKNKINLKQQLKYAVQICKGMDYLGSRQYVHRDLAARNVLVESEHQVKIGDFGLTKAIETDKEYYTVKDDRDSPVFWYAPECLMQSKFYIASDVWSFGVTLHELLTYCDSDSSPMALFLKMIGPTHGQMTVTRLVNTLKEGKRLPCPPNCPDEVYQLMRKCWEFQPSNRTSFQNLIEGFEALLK

As for `O=C(Nc1ccc2[nH]ncc2c1)c1c(Cl)cccc1-n1cnnn1`, the Ratio IC50 in the test filed under Homo sapiens came to 14. Moreover, the half-inhibitory concentration (IC50) in test [1] stood at 11500 nM; in test [2], 820 nM.
For `Nc1n[nH]c2ccc(NC(=O)c3ccccc3-n3cnnn3)cc12` the same measures were 5.3, 33900 nM and 6340 nM.
Regarding `Nc1n[nH]c2ccc(NC(=O)c3c(Cl)cccc3-n3cnnn3)cc12`, the inhibition in test [3] stood at 10%. Besides, the IC50 in test [2] came to 76600 nM.
On to `Nc1n[nH]c2ccc(NC(=O)c3ccccc3Cl)cc12`, for which the Ratio IC50 in the test listed under Homo sapiens turned out to be 18. Also, the IC50 was 1820 nM in test [1] and 101 nM in test [2].
On the same counts, the results for `Nc1n[nH]c2ccc(C(=O)Nc3c(Cl)cccc3Cl)cc12` are 16, 460 nM and 28 nM.
On the same counts, the results for `O=C(Nc1ccc2[nH]ncc2c1)c1ccccc1Cl` are 18.8, 8530 nM and 453 nM.
For `O=C(Nc1ccc2[nH]ncc2c1)c1ccccc1Cn1cnnn1` the same measures were 2.7, 9670 nM and 3540 nM.
`c1ccc(-n2cnnn2)c(-c2nc(-c3ccc4[nH]ncc4c3)cs2)c1`: the Ratio IC50 in the test listed under Homo sapiens amounted to 5. The half-inhibitory concentration (IC50) came out at 7940 nM in test [1] and 1540 nM in test [2].
For `Nc1n[nH]c2ccc(-c3cnc(-c4ccccc4-n4cnnn4)s3)cc12` the same measures were 2.85, 9290 nM and 3250 nM.
As for `O=C(Nc1ccc2[nH]ncc2c1)c1ccccc1`, in test [4], the inhibition was 17%.
`c1ccc(-n2cnnn2)c(-c2cn(-c3ccc4[nH]ncc4c3)nn2)c1`: in the test filed under Homo sapiens, the Ratio IC50 was determined as 0.9. Also, the 50% inhibitory concentration (IC50) in test [1] is 8800 nM; in test [2], 9530 nM.
For `O=C(Nc1ccc2[nH]ncc2c1)c1cccc(-n2cnnn2)c1` the same measures were 1, 764 nM and 718 nM.
For `Nc1n[nH]c2ccc(NC(=O)c3cccc(Cl)c3Cl)cc12`, the Ratio IC50 in the test listed under Homo sapiens was 3.67. Besides, the concentration for half-maximal inhibition (IC50) in test [1] was determined as 1510 nM; in test [2] it was 411 nM.
On the same counts, the results for `c1ccc(-n2cnnn2)c(-c2cc(-c3ccc4[nH]ncc4c3)on2)c1` are 1.65, 3300 nM and 2000 nM.
For `CCNc1ccccc1C(=O)Nc1ccc2[nH]ncc2c1` the same measures were 6, 24100 nM and 3960 nM.
For `Nc1n[nH]c2ccc(NC(=O)c3cccc(Cl)c3)cc12` the same measures were 1.63, 943 nM and 583 nM.
`Clc1cccc(-n2cnnn2)c1-c1nc(-c2ccc3[nH]ncc3c2)cs1`: the Ratio IC50 in the test filed under Homo sapiens worked out at 12.8. Further, the half-maximal inhibitory concentration (IC50) was found to be 21600 nM in test [1] and 1680 nM in test [2].
As for `CNS(=O)(=O)C[C@H]1CC[C@H](N(C)c2ncnc3[nH]ccc23)CC1` [OCLACITINIB], the IC50 in test [5] was determined as 10 nM; in test [6], 18 nM.
In the case of `Nc1n[nH]c2ccc(NC(=O)c3cc(Cl)ccc3Cl)cc12`, the Ratio IC50 in the test listed under Homo sapiens is 6.57. Moreover, the IC50 was 151 nM in test [1] and 23 nM in test [2].
Regarding `Nc1n[nH]c2ccc(C(=O)Nc3cc(Cl)ccc3Cl)cc12`, the Ratio IC50 in the test listed under Homo sapiens is 11. The results for the IC50 in test [1] and in test [2] were 414 nM and 38 nM, respectively.
On the same counts, the results for `Nc1n[nH]c2ccc(NC(=O)c3ccccc3)cc12` are 3.78, 10500 nM and 2780 nM.
`O=C(Nc1ccc2[nH]ncc2c1)c1cccc(Cn2cnnn2)c1`: in test [4], the inhibition was determined as 20%.
Turning to `O=C(Nc1ccc2[nH]ncc2c1)c1ccccc1-n1cnnn1`, the Ratio IC50 in the test listed under Homo sapiens was 14. Further, the IC50 stood at 33000 nM in test [1] and 2380 nM in test [2].
As for `Nc1n[nH]c2ccc(C(=O)Nc3ccccc3)cc12`, the Ratio IC50 in the test listed under Homo sapiens turned out to be 3.78. Besides, the values for the IC50 in test [1] and in test [2] were 10800 nM and 3230 nM, respectively.
For `Nc1n[nH]c2ccc(C(=O)Nc3ccccc3Cl)cc12` the same measures were 18, 2270 nM and 126 nM.
On the same counts, the results for `CCNc1ccccc1C(=O)Nc1ccc2[nH]nc(N)c2c1` are 11, 22000 nM and 1970 nM.
